System: Scenedesmus obliquus
Test: Toxicity of Cd to Scenedesmus obliquus cultures
Assay type: cell-based
Conditions: Cd(NO3)2
Protocol: Laboratory grown cultures of Scenedesmus obliquus were obtained from the Canadian Phycological Culture Center (CPCC) in Waterloo, Ontario. The cells were grown using a bold basal media (BBM) at standard light regimes (16:8 h light to dark) fixed light intensity of 90-100 μmol photons […] and fixed temperature of 21° C. constantly aerated in a growth chamber.
Four algal cultures were grown in the presence of varying levels of Cd: control (0 μL^−1 Cd); EC20 (19.5 μL^−1Cd); EC30 (46.4 μL^−1 Cd) and EC40 (78.8 μL^−1 Cd) starting at 1 million cells per mL for Replicate 1 and 2 million cells per mL for Replicate 2. The cells were harvested in early stationary phase for further analysis.

## O=[N+]([O-])[O-].O=[N+]([O-])[O-].[Cd+2] [Cd, Cd(NO3)2]
  toxicity of Cd, EC20: 19.5 μL^−1Cd
  toxicity of Cd, EC30: 46.4 μL^−1 Cd
  toxicity of Cd, EC40: 78.8 μL^−1 Cd
